# Experimental data as given in patent US7652153B2, “Caspase inhibitors and uses thereof” (Vertex Pharmaceuticals Incorporated, priority 2004, dated 2010).
# Experiments:
# caspase-8 = caspase-8 (Homo sapiens, UniProt Q14790); test: Caspase-8 enzyme inhibition (Ki, method of Margolin et al.); format: biochemical; conditions: Ac-DEVD-pNA substrate 80 μM, 37° C., pH 7.5; read-out: Ki C8
# Experimental: (§1) Compounds of this invention may be tested using the methods described below.
# (§2) In Vitro Assays Enzyme Inhibition
# (§3) Ki values for test compounds with caspase-1 and caspase-8 were obtained by the method of Margolin et al. (J. Biol. Chem., 272 pp. 7223-7228 (1997)). Other caspases may be assayed similarly (see, e.g., WO 99/47545). Assays were performed in 10 mM Tris (Sigma Corp, St Louis Mo.) pH 7.5, 1 mM Dithiothreitol (DTT, Research Organic INC, Cleveland, Ohio) and 0.1% CHAPS (Pierce, Rockford Ill.) at 37° C. For caspase-3, a solution of 8% glycerol was added to the assay buffer to improve enzyme stability. A 65 μL aliquot of the assay buffer and 5 μL aliquot of the appropriate dilutions of inhibitor in DMSO where pipetted into a 96 well plate, treated with 10 μL of caspase, then diluted in assay buffer (0.5-40 nM active protein by active site titration). A control containing DMSO but no compound was included for each determination. The plates were then incubated for 15 minutes at 37° C., before addition of the appropriate substrate (20 μL, final concentration 1-4×KM, final assay volume 100 μL) to initiate the reaction. Reaction rates were measured at 37° C. either by following the time dependant increase in absorbance at 405 nm (for the pNA substrates) or in fluorescence (Ex 390, Em 460) (for the AMC substrates). The rates obtained were plotted against inhibitor concentration and the data fit to the Morrison tight-binding equation for competitive inhibitors (Morrison, J. F., Biochem. Biophys. Acta, 185 pp. 269-286 (1969)). The substrates used for the individual assays were as follows:
# Caspase-8 Ac-DEVD-pNA (Bachem, King of Prussia, Pa.) (final concentration in assay 80 μM).
# caspase-1 = target: T1, caspase-1 (Homo sapiens, UniProt P29466); test: Caspase-1 enzyme inhibition (Ki, method of Margolin et al.); format: biochemical; conditions: Suc-YVAD-pNA substrate 80 μM, 37° C., pH 7.5; read-out: Ki C1
# T1 sequence (P29466 120-297 limits assumed): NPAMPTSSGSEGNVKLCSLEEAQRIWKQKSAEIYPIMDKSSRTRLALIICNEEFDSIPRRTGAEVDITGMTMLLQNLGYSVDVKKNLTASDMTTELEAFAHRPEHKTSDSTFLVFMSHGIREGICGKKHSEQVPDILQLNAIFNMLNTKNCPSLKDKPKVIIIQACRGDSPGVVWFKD
# T1 sequence (P29466 317-404 limits assumed): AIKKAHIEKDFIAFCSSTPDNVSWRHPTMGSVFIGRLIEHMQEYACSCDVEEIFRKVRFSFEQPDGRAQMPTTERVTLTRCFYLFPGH
# Experimental: as §1, §2, §3
# Caspase-1 Suc-YVAD-pNA (Bachem, King of Prussia, Pa.) (final concentration in the assay 80 μM);
# Chain of caspase-8 (Q14790 217-374 limits assumed, species assumed): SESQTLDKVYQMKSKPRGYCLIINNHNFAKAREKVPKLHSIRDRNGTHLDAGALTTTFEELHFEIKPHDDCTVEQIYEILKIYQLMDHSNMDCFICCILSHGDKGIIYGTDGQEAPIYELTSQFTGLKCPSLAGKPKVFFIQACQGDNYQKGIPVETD
# Chain of caspase-8 (Q14790 385-479 limits assumed, species assumed): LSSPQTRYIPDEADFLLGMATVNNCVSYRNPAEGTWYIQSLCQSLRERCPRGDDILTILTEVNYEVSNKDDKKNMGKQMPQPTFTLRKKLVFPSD
SMILES,Ki (caspase-8) [nM],Ki (caspase-1) [nM]
"CC(=O)Nc1ccc(C(=O)N[C@H](C(=O)N2CCC[C@H]2C(=O)N[C@H](C=O)CC(=O)O)C(C)C)c(Cl)c1 [II-40, (S,S,S)-(3S)-({1-[(2S)-(2-chloro-4-acetamido-benzoylamino)-3-methyl-butyryl]-pyrrolidine-(2S)-carbonyl}-amino)-4-oxo-butyric acid]",10 to 20,< 10
"CC(=O)Nc1ccc(C(=O)N[C@H](C(=O)N2CCC[C@H]2C(=O)N[C@H](C=O)CC(=O)O)C2CCCCC2)c(Cl)c1 [II-50, (S,S,S)-(3S)-({1-[(2S)-(2-chloro-4-acetamido-benzoylamino)-3-cyclohexyl]-pyrrolidine-(2S)-carbonyl}-amino)-4-oxo-butyric acid]",21 to 30,< 10
"CC(C)[C@H](NC(=O)c1c(Cl)cncc1Cl)C(=O)N1CCC[C@H]1C(=O)N[C@H](C=O)CC(=O)O [II-19, (S,S,S)-(3S)-[(1-{(2S)-[(3,5-Dichloro-pyridine-4-carbonyl)-amino]-3-methyl-butyryl}-pyrrolidine-(2S)-carbonyl)-amino]-4-oxo-butyric acid]",< 10,10 to 20
"CC(C)[C@H](NC(=O)c1ccnc(Cl)c1Cl)C(=O)N1CCC[C@H]1C(=O)N[C@H](C=O)CC(=O)O [II-18, (S,S,S)-(3S)-[(1-{(2S)-[(2,3-Dichloro-pyridine-4-carbonyl)-amino]-3-methyl-butyryl}-pyrrolidine-(2S)-carbonyl)-amino]-4-oxo-butyric acid]",10 to 20,< 10
"CCC(=O)Nc1ccc(C(=O)N[C@H](C(=O)N2C3CC[C@@H](C3)[C@H]2C(=O)NC(C=O)CC(=O)O)C(C)(C)C)c(Cl)c1 (stereo in doubt) [II-58, (3S)-({2-[(2S)-(2-Chloro-4-propionylamino-benzoylamino)-3,3-dimethyl-butyryl]-2-(1S,4R)-aza-bicyclo[2.2.1]heptane-(3S)-carbonyl}-amino)-4-oxo-butyric acid]",< 10,< 10
"CC(C)(C)[C@H](NC(=O)c1ccccc1Cl)C(=O)N1CCC[C@H]1C(=O)N[C@H](C=O)CC(=O)O [II-28, (S,S,S)-(3S)-({1-[(2S)-(2-Chloro-benzoylamino)-3,3-dimethyl-butyryl]-pyrrolidine-(2S)-carbonyl}-amino)-4-oxo-butyric acid]",< 10,< 10
"CC(=O)Nc1cccc(C(=O)N[C@H](C(=O)N2CCC[C@H]2C(=O)N[C@H](C=O)CC(=O)O)C(C)(C)C)c1Cl [II-41, (S,S,S)-(3S)-({1-[(2S)-(2-Chloro-3-acetamido-benzoylamino)-3,3-dimethyl-butyryl]-pyrrolidine-(2S)-carbonyl}-amino)-4-oxo-butyric acid]",< 10,< 10
"COCc1ccc(C(=O)N[C@H](C(=O)N2CCC[C@H]2C(=O)N[C@H](C=O)CC(=O)O)C(C)(C)C)c(Cl)c1 [II-48, (S,S,S)-(3S)-({1-[(2S)-(2-chloro-4-methoxymethyl-benzoylamino)-3,3-dimethyl-butyryl]-pyrrolidine-(2S)-carbonyl}-amino)-4-oxo-butyric acid]",< 10,< 10
"CC(C)C(=O)Nc1cccc(C(=O)N[C@H](C(=O)N2C3CC[C@@H](C3)[C@H]2C(=O)N[C@H](C=O)CC(=O)O)C(C)(C)C)c1Cl (stereo in doubt) [II-59, (3S)-({2-[(2S)-(2-Chloro-3-isobutyrylamino-benzoylamino)-3,3-dimethyl-butyryl]-2-(1S,4R)-aza-bicyclo[2.2.1]heptane-(3S)-carbonyl}-amino)-4-oxo-butyric acid]",< 10,< 10
"Cc1c(N)cccc1C(=O)N[C@H](C(=O)N1CCC[C@H]1C(=O)N[C@H](C=O)CC(=O)O)C(C)C [II-7, (S,S,S)-(3S)-({1-[(2S)-(3-Amino-2-methyl-benzoylamino)-3-methyl-butyryl]-pyrrolidine-(2S)-carbonyl}-amino)-4-oxo-butyric acid]",10 to 20,< 10
"CCc1cccc(C(=O)N[C@H](C(=O)N2CCC[C@H]2C(=O)N[C@H](C=O)CC(=O)O)C(C)(C)C)c1Cl [II-36, (S,S,S)-(3S)-({1-[(2S)-(2-Chloro-3-ethyl-benzoylamino)-3,3-dimethyl-butyryl]-pyrrolidine-(2S)-carbonyl}-amino)-4-oxo-butyric acid]",< 10,< 10
"Cc1cccc(C)c1C(=O)N[C@H](C(=O)N1CCC[C@H]1C(=O)N[C@H](C=O)CC(=O)O)C(C)C [II-14, (S,S,S)-(3S)-({1-[(2S)-(2,6-Methyl-benzoylamino)-3-methyl-butyryl]-pyrrolidine-(2S)-carbonyl}-amino)-4-oxo-butyric acid]",< 10,10 to 20
"Cc1ccccc1C(=O)N[C@H](C(=O)N1CCC[C@H]1C(=O)N[C@H](C=O)CC(=O)O)C(C)C [II-3, (S,S,S)-(3S)-({1-[3-Methyl-(2S)-(2-methyl-benzoylamino)-butyryl]-pyrrolidine-(2S)-carbonyl}-amino)-4-oxo-butyric acid]",< 10,< 10
"CC(C)(C)[C@H](NC(=O)c1cccc(OC(F)(F)F)c1Cl)C(=O)N1CCC[C@H]1C(=O)N[C@H](C=O)CC(=O)O [II-32, (S,S,S)-(3S)-({1-[(2S)-(2-Chloro-3-trifluoromethoxy-benzoylamino)-3,3-dimethyl-butyryl]-pyrrolidine-(2S)-carbonyl}-amino)-4-oxo-butyric acid]",< 10,< 10
"COc1ccccc1C(=O)N[C@H](C(=O)N1CCC[C@H]1C(=O)N[C@H](C=O)CC(=O)O)C(C)C [II-4, (S,S,S)-(3S)-({1-[(2S)-(2-methoxy-benzoylamino)-3-methyl-butyryl]-pyrrolidine-(2S)-carbonyl}-amino)-4-oxo-butyric acid]",10 to 20,< 10
"Cc1cccc(C(=O)N[C@H](C(=O)N2CCC[C@H]2C(=O)N[C@H](C=O)CC(=O)O)C(C)(C)C)c1Cl [II-34, (S,S,S)-(3S)-({1-[(2S)-(2-Chloro-3-methyl-benzoylamino)-3,3-dimethyl-butyryl]-pyrrolidine-(2S)-carbonyl}-amino)-4-oxo-butyric acid]",< 10,< 10
"COc1cccc(C(=O)N[C@H](C(=O)N2C3CC[C@@H](C3)[C@H]2C(=O)N[C@H](C=O)CC(=O)O)C(C)C)c1F (stereo in doubt) [II-61, (3S)-({2-[(2S)-(2-Fluoro-3-methoxy-benzoylamino)-3-methyl-butyryl]-2-(1S,4R)-aza-bicyclo[2.2.1]heptane-(3S)-carbonyl}-amino)-4-oxo-butyric acid]",< 10,< 10
"COc1cccc(C(=O)N[C@H](C(=O)N2CCC[C@H]2C(=O)N[C@H](C=O)CC(=O)O)C(C)C)c1C [II-1, (S,S,S)-(3S)-({1-[(2S)-(3-Methoxy-2-methyl-benzoylamino)-3-methyl-butyryl]-pyrrolidine-(2S)-carbonyl}-amino)-4-oxo-butyric acid]",< 10,< 10
"Cc1ccsc1C(=O)N[C@H](C(=O)N1CCC[C@H]1C(=O)N[C@H](C=O)CC(=O)O)C(C)C [II-17, (S,S,S)-(3S)-[(1-{3-Methyl-(2S)-[(3-methyl-thiophene-2-carbonyl)-amino]-butyryl}-pyrrolidine-(2S)-carbonyl)-amino]-4-oxo-butyric acid]",< 10,< 10
"COc1cccc(C(=O)N[C@@H](Cc2cscn2)C(=O)N2CCC[C@H]2C(=O)N[C@H](C=O)CC(=O)O)c1C [II-23, (S,S,S)-(3S)-({1-[(2S)-(3-Methoxy-2-methyl-benzoylamino)-3-thiazol-4-yl-propionyl]-pyrrolidine-(2S)-carbonyl}-amino)-4-oxo-butyric acid]",21 to 30,< 10
"CC(C)[C@H](NC(=O)c1cccc(Cl)c1Cl)C(=O)N1CCC[C@H]1C(=O)N[C@H](C=O)CC(=O)O [II-8, (S,S,S)-(3S)-({1-[(2S)-(2,3-Dichloro-benzoylamino)-3-methyl-butyryl]-pyrrolidine-(2S)-carbonyl}-amino)-4-oxo-butyric acid]",10 to 20,< 10
"CC(C)[C@H](NC(=O)c1ccc(Cl)cc1Cl)C(=O)N1CCC[C@H]1C(=O)N[C@H](C=O)CC(=O)O [II-11, (S,S,S)-(3S)-({1-[(2S)-(2,4-Dichloro-benzoylamino)-3-methyl-butyryl]-pyrrolidine-(2S)-carbonyl}-amino)-4-oxo-butyric acid]",21 to 30,< 10
